Results reported in patent US20180099931A1 (AbbVie S.à.r.l., priority 2016, published 2018).
Where two headings read alike, the source gives them in different places.

Biological target: T1, F508delCFTR (Homo sapiens, UniProt P13569, DEL508-508)
T1 construct: expressed in transfected cells; host or cells: CFBE41o- human lung-derived epithelial cells (CFBE4lo-F508delCFTR-HRP), doxycycline-inducible
Assay: Cell Surface Expression-Horse Radish Peroxidase (CSE-HRP) Assay;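 on Maximum % activity (with co-corrector): co-corrector and positive control are both the same reference corrector at 2 µM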;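 on Maximum % activity (without co-corrector): percent of the 2 µM on-plate positive control corrector response above DMSO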
Format: cell-based
Conditions: for Maximum % activity (with co-corrector) / Emax: maximum at any tested concentration, normalized to on-plate positive control; for Emax: read-out: Maximum % activity (without co-corrector)
Experimental: Cell Surface Expression-Horse Radish Peroxidase (CSE-HRP) Assay;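 on Maximum % activity (with co-corrector): co-corrector and positive control are both the same reference corrector at 2 µM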;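 on Maximum % activity (without co-corrector): percent of the 2 µM on-plate positive control corrector response above DMSO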
The development was achieved by expressing the F508delCFTR mutation along with a horseradish peroxidase (HRP) in the fourth exofacial loop, and then measuring the HRP activity using luminescence readout from these cells, CFBE4lo-F508delCFTR-HRP, that were incubated overnight with the test corrector compounds, either without or with the co-corrector. […] The test compounds were then added either without or with a co-corrector at the required concentrations and further incubated for 18-24 hours at 33° C. The highest concentration tested was 20 μM with an 8-point concentration response curve using a 3-fold dilution in both the test compound without or with the co-corrector. Three replicate plates were run to determine one EC50. All plates contained negative controls (dimethyl sulfoxide, DMSO) and positive control (2 μM of 3-[(2R,4R)-4-({[1-(2,2-difluoro-1,3-benzodioxol-5-yl)cyclopropyl]carbonyl}amino)-7-methoxy-3,4-dihydro-2H-chromen-2-yl]benzoic acid) as well as on-plate concentration response of the positive control. […] The raw counts from the experiment were analyzed using Accelrys® Assay Explorer v3.3.
1−[3*SDPositive Control+3*SDNegative Control/Absolute(MeanPositive Control−MeanNegative Control)]
wherein “SD” is standard deviation.
The % activity measured at each of the 8 test concentrations of the test compound added either without or with a co-corrector (2 μM of 3-[(2R,4R)-4-({[1-(2,2-difluoro-1,3-benzodioxol-5-yl)cyclopropyl]carbonyl}amino)-7-methoxy-3,4-dihydro-2H-chromen-2-yl]benzoic acid) was normalized to the on-plate positive control using the following formulae:
% activity(Test compound without co-corrector)=[(test compound without co-corrector response−DMSO response)/(positive control response−DMSO response)]*100
% activity(Test compound with co-corrector)=[(test compound with co-corrector response−DMSO response)/(positive control response−DMSO response)]*100
The maximum % activity achieved for the test compound either without or with a co-corrector at any tested concentration is presented in Table 4 along with the respective EC50's calculated using the following general sigmoidal curve with variable Hill slope equation (described as Model 42 in the Accelrys® Assay Explorer v3.3 software):
General sigmoidal curve with concentration, response, top, bottom, EC50 and Hill slope. This model describes a sigmoidal curve with an adjustable baseline, a. The equation can be used to fit curves where response is either increasing or decreasing with respect to the independent variable, “x”.
“x” is a concentration of drug under test. “y” is the response. “a” is the maximum response, and “d” is the minimum response “c” is the inflection point (EC50) for the curve. That is, “y” is halfway between the lower and upper asymptotes when x=c. “b” is the slope-factor or Hill coefficient. The sign of b is positive when the response increases with increasing dose and is negative when the response decreases with increasing dose (inhibition).

[1] = CSE-HRP, test compound without co-corrector, read-out: EC50 (without co-corrector)
[2] = CSE-HRP, with co-corrector (2 μM of 3-[(2R,4R)-4-({[1-(2,2-difluoro-1,3-benzodioxol-5-yl)cyclopropyl]carbonyl}amino)-7-methoxy-3,4-dihydro-2H-chromen-2-yl]benzoic acid), read-out: EC50 (with co-corrector)
[3] = CSE-HRP, with co-corrector (2 μM)
[4] = test compound without co-corrector
[5] = test compound without co-corrector, read-out: EC50 (without co-corrector)
[6] = with co-corrector (2 μM of 3-[(2R,4R)-4-({[1-(2,2-difluoro-1,3-benzodioxol-5-yl)cyclopropyl]carbonyl}amino)-7-methoxy-3,4-dihydro-2H-chromen-2-yl]benzoic acid), read-out: EC50 (with co-corrector)
[7] = with co-corrector (2 μM of 3-[(2R,4R)-4-({[1-(2,2-difluoro-1,3-benzodioxol-5-yl)cyclopropyl]carbonyl}amino)-7-methoxy-3,4-dihydro-2H-chromen-2-yl]benzoic acid)

T1 sequence (P13569 with tags, fused parts or gaps DEL508-508): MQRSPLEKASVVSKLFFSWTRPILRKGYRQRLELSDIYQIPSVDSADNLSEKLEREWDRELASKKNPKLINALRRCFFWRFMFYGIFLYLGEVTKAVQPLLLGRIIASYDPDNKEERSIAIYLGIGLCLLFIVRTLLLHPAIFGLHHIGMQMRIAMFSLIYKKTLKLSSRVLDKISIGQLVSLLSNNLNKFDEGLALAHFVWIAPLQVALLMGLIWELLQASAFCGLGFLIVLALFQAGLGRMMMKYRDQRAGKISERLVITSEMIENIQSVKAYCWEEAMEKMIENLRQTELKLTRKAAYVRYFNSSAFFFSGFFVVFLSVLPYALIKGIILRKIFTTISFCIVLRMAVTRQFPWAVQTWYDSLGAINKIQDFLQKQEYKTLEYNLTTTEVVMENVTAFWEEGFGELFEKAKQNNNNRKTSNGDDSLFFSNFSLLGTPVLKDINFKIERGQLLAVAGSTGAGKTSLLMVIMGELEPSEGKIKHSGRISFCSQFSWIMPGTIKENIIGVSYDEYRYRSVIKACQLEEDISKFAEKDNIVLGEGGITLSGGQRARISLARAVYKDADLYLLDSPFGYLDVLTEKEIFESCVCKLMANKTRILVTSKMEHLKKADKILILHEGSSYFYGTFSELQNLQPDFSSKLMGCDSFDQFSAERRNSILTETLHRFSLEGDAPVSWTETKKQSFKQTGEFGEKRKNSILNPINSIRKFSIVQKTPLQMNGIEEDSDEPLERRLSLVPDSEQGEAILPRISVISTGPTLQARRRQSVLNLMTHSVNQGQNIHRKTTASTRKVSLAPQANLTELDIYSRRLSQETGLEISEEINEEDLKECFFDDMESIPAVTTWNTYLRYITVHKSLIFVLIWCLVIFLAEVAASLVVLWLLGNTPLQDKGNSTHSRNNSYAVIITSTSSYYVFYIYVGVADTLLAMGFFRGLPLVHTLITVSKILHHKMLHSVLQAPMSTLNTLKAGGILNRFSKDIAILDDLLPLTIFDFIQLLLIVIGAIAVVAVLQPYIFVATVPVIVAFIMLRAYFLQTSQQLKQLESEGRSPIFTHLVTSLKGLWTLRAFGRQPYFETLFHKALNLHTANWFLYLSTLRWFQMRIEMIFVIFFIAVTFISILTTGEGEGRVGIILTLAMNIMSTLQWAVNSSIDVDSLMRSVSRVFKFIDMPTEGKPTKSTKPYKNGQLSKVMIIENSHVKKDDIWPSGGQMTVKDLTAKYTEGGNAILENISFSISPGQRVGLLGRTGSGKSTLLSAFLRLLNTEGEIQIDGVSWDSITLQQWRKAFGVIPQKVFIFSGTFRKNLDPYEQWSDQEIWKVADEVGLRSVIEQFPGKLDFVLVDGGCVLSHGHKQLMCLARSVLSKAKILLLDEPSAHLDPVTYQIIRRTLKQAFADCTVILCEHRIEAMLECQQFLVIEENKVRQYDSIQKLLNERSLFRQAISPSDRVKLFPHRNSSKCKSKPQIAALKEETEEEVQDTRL

SMILES | EC50 [1] | EC50 [2] | Maximum % activity (with co-corrector) [3] | Emax (CSE-HRP, without co-corrector) | Emax [4] | EC50 [5] | EC50 [6] | Maximum % activity (with co-corrector) (with co-corrector (2 μM)) | Emax (without co-corrector) | Maximum % activity (with co-corrector) [7]
COc1ccc(C(C)(C)C)cc1CN[C@H]1[C@H](C(C)(C)C)[C@@H](C(=O)O)N(C(=O)C(OC)C(C)C)[C@H]1c1ccccc1 (stereo partly drawn) [II-267] | 1000 to 10000 nM | 1000 to 10000 nM | +++ (≥350) | > 200% | – | – | – | – | – | –
COc1cc(C(F)(F)F)ccc1CN[C@@H]1[C@@H](C(C)(C)C)[C@H](C(=O)O)N(C(=O)OC(C)C)[C@@H]1c1ccccc1N(C)C (racemic) [II-57] | 1000 to 10000 nM | 1000 to 10000 nM | +++ (≥350) | 100 to 200% | – | – | – | – | – | –
COc1ccc(C(F)(F)F)cc1CN[C@@H]1[C@@H](C(C)(C)C)[C@H](C(=O)O)N(C(=O)[C@](OC)(c2ccccc2)C(F)(F)F)[C@@H]1c1ccccc1 [III-102] | – | – | – | – | < 100% | > 10000 nM | 1000 to 10000 nM | ++ (≥150 and <350) | – | –
COc1ccc(SC(F)(F)F)cc1CN[C@H]1[C@H](C(C)(C)C)[C@@H](C(=O)O)N(C(=O)C2CCCCC2)[C@H]1c1ccccc1 [Example I-184] | – | – | – | – | – | 1000 to 10000 nM | < 1000 nM | +++ (≥350) | 100 to 200% | –
CCOc1ccc(Br)cc1CN[C@H]1[C@H](C(C)(C)C)[C@@H](C(=O)O)N(C(=O)OC(C)C)[C@H]1c1cccnc1N1CCC1 [Example I-274] | 1000 to 10000 nM | 1000 to 10000 nM | +++ (≥350) | 100 to 200% | – | – | – | – | – | –
COc1ccc(C(C)(C)C)cc1CN[C@H]1[C@H](C23CC(C2)C3)[C@@H](C(=O)O)N(C(=O)C2CCCCC2)[C@H]1c1ccccc1 [Example I-202] | – | – | – | – | – | 1000 to 10000 nM | < 1000 nM | +++ (≥350) | > 200% | –
COc1ccc(-c2ccccc2)cc1CN[C@H]1[C@H](C(C)(C)C)[C@@H](C(=O)O)N(C(=O)OC(C)C)[C@H]1c1cccnc1N(C)C [II-547] | – | – | – | – | > 200% | 1000 to 10000 nM | 1000 to 10000 nM | – | – | +++ (≥350)
Cc1ccc(C#N)c(N[C@H]2[C@H](C(C)(C)C)[C@@H](C(=O)O)N(C(=O)C3CCCCC3)[C@H]2c2ccccc2)n1 [II-146] | 1000 to 10000 nM | 1000 to 10000 nM | +++ (≥350) | < 100% | – | – | – | – | – | –
COc1ccc(C(C)(C)C)nc1CN[C@H]1[C@H](C(C)(C)C)[C@@H](C(=O)O)N(C(=O)C2CCCCC2)[C@H]1c1ccccc1 [II-373] | – | – | – | – | 100 to 200% | 1000 to 10000 nM | 1000 to 10000 nM | – | – | +++ (≥350)
CC(C)(C)[C@H]1[C@H](Nc2ncccc2OCc2ccccc2)[C@H](c2ccccc2)N(C(=O)C2CCCCC2)[C@@H]1C(=O)O [III-160] | – | – | – | – | < 100% | 1000 to 10000 nM | 1000 to 10000 nM | ++ (≥150 and <350) | – | –
COC(=O)N1CCC[C@@H](C(=O)N2[C@H](c3ccccc3)[C@H](Nc3cc(C(F)(F)F)cc(C)n3)[C@@H](C(C)(C)C)[C@@H]2C(=O)O)C1 (racemic) [Example I-27] | – | – | – | – | – | 1000 to 10000 nM | 1000 to 10000 nM | +++ (≥350) | > 200% | –
COc1nc(C(C)(C)C)ccc1CN[C@H]1[C@H](C(C)(C)C)[C@@H](C(=O)O)N(C(=O)C2Cc3ccccc3O2)[C@H]1c1ccccc1 (single isomer, unassigned) [II-430] | – | – | – | – | < 100% | < 1000 nM | – | – | – | ++ (≥150 and <350)
CC(C)(C)[C@@H]1[C@@H](Nc2cc(C(F)(F)F)cc[n+]2[O-])[C@@H](c2ccccc2)N(C(=O)C2CCCCC2)[C@H]1C(=O)O (racemic) [III-31] | – | – | – | – | < 100% | > 10000 nM | 1000 to 10000 nM | – | – | ++ (≥150 and <350)
CCc1cc2ccc(Cl)cc2nc1N[C@H]1[C@H](C(C)(C)C)[C@@H](C(=O)O)N(C(=O)C2CCCCC2)[C@H]1c1ccccc1 [III-149] | – | – | – | – | 100 to 200% | 1000 to 10000 nM | 1000 to 10000 nM | +++ (≥350) | – | –
COc1ccc(C(F)(F)F)cc1CN[C@H]1[C@H](C2(C)CC2)[C@@H](C(=O)O)N(C(=O)C2CCCCC2)[C@H]1c1ccccc1 [Example I-136] | – | – | – | – | – | 1000 to 10000 nM | 1000 to 10000 nM | +++ (≥350) | 100 to 200% | –
COc1ccc(C(C)(C)C)cc1CN[C@H]1[C@H](C(C)(C)C)[C@@H](C(=O)O)N(C(=O)C(C)Oc2cccc(Cl)c2)[C@H]1c1ccccc1 (stereo partly drawn) [II-330] | – | – | – | – | > 200% | 1000 to 10000 nM | < 1000 nM | – | – | +++ (≥350)
COc1ccc(C(C)(C)C)cc1CN[C@H]1[C@H](C(C)(C)C)[C@@H](C(=O)O)N(C(=O)C2CCO2)[C@H]1c1ccccc1 (stereo partly drawn) [II-443] | – | – | – | – | > 200% | 1000 to 10000 nM | 1000 to 10000 nM | – | – | +++ (≥350)
COc1ccc(C(F)(F)F)cc1CN[C@@H]1[C@@H](C(C)(C)C)[C@H](C(=O)O)N(C(=O)OC(C)C)[C@@H]1c1ccccc1N(C)C (racemic) [II-56] | 1000 to 10000 nM | 1000 to 10000 nM | +++ (≥350) | 100 to 200% | – | – | – | – | – | –
COc1ccc(C(C)(C)C)cc1CN[C@H]1[C@H](C(C)(C)C)[C@@H](C(=O)O)N(C(=O)Cc2cccs2)[C@H]1c1ccccc1 [II-182] | 1000 to 10000 nM | < 1000 nM | +++ (≥350) | > 200% | – | – | – | – | – | –
COc1ccc(C(F)(F)F)cc1CN[C@H]1[C@H](C(C)(C)C)[C@@H](C(=O)O)N(C(=O)C2CCC(C)(C)O2)[C@H]1c1ccccc1 (stereo partly drawn) [Example I-164] | – | – | – | – | – | 1000 to 10000 nM | 1000 to 10000 nM | +++ (≥350) | > 200% | –
COc1ccc(C2CCOCC2)cc1CN[C@H]1[C@H](C(C)(C)C)[C@@H](C(=O)O)N(C(=O)C2CCCCC2)[C@H]1c1ccccc1 [II-340] | – | – | – | – | 100 to 200% | 1000 to 10000 nM | 1000 to 10000 nM | – | – | +++ (≥350)
COc1ccc(C(C)(C)C)cc1CN[C@H]1[C@H](C(C)(C)C)[C@@H](C(=O)O)N(C(=O)Cc2ccccc2F)[C@H]1c1ccccc1 [II-206] | < 1000 nM | < 1000 nM | +++ (≥350) | > 200% | – | – | – | – | – | –
CC(C)(C)[C@H]1[C@H](NCc2cc(Cl)ccc2Cl)[C@H](c2ccccc2)N(C(=O)C2CCCCC2)[C@@H]1C(=O)O [II-105] | 1000 to 10000 nM | 1000 to 10000 nM | +++ (≥350) | < 100% | – | – | – | – | – | –
COc1ncc(C(F)(F)F)cc1CN[C@H]1[C@H](C(C)(C)C)[C@@H](C(=O)O)N(C(=O)[C@@H]2CCCCO2)[C@H]1c1ccccc1 [Example 21, (2S,3S,4S,5S)-3-tert-butyl-4-({[2-methoxy-5-(trifluoromethyl)pyridin-3-yl]methyl}amino)-1-[(2S)-oxane-2-carbonyl]-5-phenylpyrrolidine-2-carboxylic acid] | – | – | – | – | – | 1000 to 10000 nM | 1000 to 10000 nM | +++ (≥350) | 100 to 200% | –
COc1ncc(C(F)(F)F)cc1CN[C@H]1[C@H](C(C)(C)C)[C@@H](C(=O)O)N(C(=O)[C@@H]2CCCO2)[C@H]1c1cccnc1C1CC1 [II-586] | – | – | – | – | < 100% | 1000 to 10000 nM | 1000 to 10000 nM | – | – | ++ (≥150 and <350)
